Values quoted from earlier work as cited in patent US20230363996A1, “HAIR CARE COMPOSITION” (Conopco, Inc., d/b/a UNILEVER, priority 2020, published 2023).

settings: organic/aqueous partition

Row | SMILES | log P
1 | O=C(c1ccccc1)c1ccc(O)cc1O [benzophenone-1] | 3.15
2 | O=C(c1ccc(O)cc1O)c1ccc(O)cc1O [benzophenone-2] | 3.09
3 | COc1cc(O)c(C(=O)c2ccccc2)cc1S(=O)(=O)O [Benzophenone-4, reference compound] | Benzophenone-4 (logP = 0.99)

The remaining lines, values ahead:

Row | log P | SMILES
4 | 4.31 | COc1ccc(C(=O)c2ccccc2O)c(O)c1 [benzophenone-8]
5 | 4.51 | O=C(c1ccccc1)c1cc(Cl)ccc1O [benzophenone-7]
6 | 4.66 | COc1ccc(C(=O)c2ccc(C)cc2)c(O)c1 [benzophenone-10]
7 | 4.78 | COc1ccc(C(=O)c2ccc(OC)cc2O)c(O)c1 [benzophenone-6]
8 | 3.99 | COc1ccc(C(=O)c2ccccc2)c(O)c1 [benzophenone-3]
